According to patent EP4371976B1, “IONIZABLE LIPIDS AND LIPID NANOPARTICLES CONTAINING THEREOF” (Certest Biotec, S.L., priority 2022, dated 2024):

Experiments:
[1] = Apparent pKa of LNPs comprising the ionizable lipid (Table 6); conditions: standard formulation 50:10:38.5:1.5
[2] = RNA encapsulation efficiency of LNPs by Quant-IT Ribogreen; assay type: physicochemical; conditions: LNPs with luciferase mRNA; ionizable lipid:non-cationic lipid:sterol:PEG-modified lipid 50:10:38.5:1.5; percentage of RNA entrapped in the LNP
In short: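 LNPs formed by mixing aqueous mRNA into ethanol lipid solution, diluted 1:1 in Tris, dialysed overnight against Tris with 15% sucrose. Encapsulated mRNA measured by Ribogreen fluorescence per kit protocol; LNPs adjusted to 100 µg/ml final mRNA.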

[3] = Size distribution, polydispersity and Z-potential of LNPs by dynamic light scattering (Malvern Zetasizer); assay type: physicochemical; conditions: LNPs, standard formulation 50:10:38.5:1.5; DLS
Method: The LNP solution was then adjusted to a final concentration of mRNA of 100 µg/ml. Size distribution, polydispersity and Z-potential were measured by dynamic light scattering (DLS) using Malvern Zetasizer Advance Lab Blue Label. RNA encapsulation was assessed by Quant-IT® Ribogreen following the manufacturer's instructions.

Structure (SMILES) | Apparent pKa [1] | Encaps. efficiency (%) [2] [%] | P.D.I. [3] | Particle size/ Ø (nm) [3] [nm] | Z Potential (± D.E.) [mV] [3] [mV]
CCCCCCCCCCCCCCCCOC(=O)CCSCCC(C(=O)NCCCn1ccnc1)C(=O)OC(CCCCCCCC)CCCCCCCC (stereo not drawn) [VC-LC-0369] | 6.02 | 92.05 | 0.15 | 137.6 | -10.72
CCCCCCCCCCCCOC(=O)CCSCC(CC(=O)NCCCN1CCOCC1)C(=O)OC(CCCCCCCC)CCCCCCCC (stereo not drawn) [VC-LC-0544] | 6.53 | 36.86 | 0.12 | 140.3 | -11.02
CCCCCCCCCCCCCOC(=O)CCSCCC(NC(=O)C(CCCCCC)CCCCCCCC)C(=O)NCCN(CC)CC (stereo not drawn) [VC-LC-0473] | 6.73 | 43.07 | 0.085 | 134.0 | -7.78
CCCCCCCCC(CCCCCCCC)OC(=O)C(CCSCCC(=O)OCCCCCCCC(C)C)C(=O)NCCCn1ccnc1 (stereo not drawn) [VC-LC-0364] | 6.38 | 78.29 | 0.13 | 116.8 | -14.33
CCCCCCCC/C=C\CCCCCCCC(=O)NC(CCSCCC(=O)OCCCCCCCC(C)C)C(=O)NCCCN(CCO)CCO (stereo not drawn) [VC-LC-0292] | 7.06 | 94.63 | 0.18 | 177.7 | 7.79
CCCCCCCCCCCCCCOC(=O)CCSCCC(NC(=O)C(CCCCCCCC)CCCCCCCCCC)C(=O)NCCCN1CCOCC1 (stereo not drawn) [VC-LC-0577] | 5.69 | 55.61 | 0.13 | 182.2 | -15.06
CCCCCCCCCCCCC(CCCCCCCCCC)COC(=O)CCSCCC(NC(=O)C(CCCCCC)CCCCCCCC)C(=O)NC1CCN(C)CC1 (stereo not drawn) [VC-LC-0428] | 5.84 | 65.37 | 0.11 | 185.3 | -8.34
CCCCCCCCC(CCCCCCCC)OC(=O)C(CSCCC(=O)OCCCCCC)CC(=O)NCCCn1ccnc1 (stereo not drawn) [VC-LC-0306] | 5.70 | 45.62 | 0.09 | 184.2 | -12.78
CCCCCCCCCCCCCCCCOC(=O)CCSCCC(NC(=O)C(CCCCCC)CCCCCCCC)C(=O)NCCCN1CCCC1 (stereo not drawn) [VC-LC-0248] | 7.24 | 89.76 | 0.35 | 248 | 4.52
CCCCCCCCCCCCOC(=O)CCSCCC(NC(=O)C(CCCCCCCC)CCCCCCCCCC)C(=O)NCC1CCN(C)CC1 (stereo not drawn) [VC-LC-0511] | 6.85 | 98.97 | 0.14 | 155.6 | 4.06
CCCCCCCC/C=C\CCCCCCCCOC(=O)CCSCCC(NC(=O)C(CCCCCCCC)CCCCCCCCCC)C(=O)NCCCN1CCOCC1 (stereo not drawn) [VC-LC-0587] | 5.54 | 38.50 | 0.12 | 150.3 | -6.62
CCCCCCCCC(CCCCCC)C(=O)NC(CCSCCC(=O)OCC(CC)CCCC)C(=O)NCC1CCN(C)CC1 (stereo not drawn) [VC-LC-0493] | 6.46 | 98.56 | 0.12 | 128.8 | -0.57
CCCCCCCCCCCCCCCCOC(=O)CCSCCC(NC(=O)C(CCCCCC)CCCCCCCC)C(=O)NCCN(CC)CC (stereo not drawn) [VC-LC-0480] | 6.37 | 73.32 | 0.2 | 154.5 | -6.33
CCCCCCCCOC(=O)CCSCC(CC(=O)NC1CCN(C)CC1)C(=O)OCC(CCCCCC)CCCCCCCC (stereo not drawn) [VC-LC-0535] | 7.87 | 96.61 | 0.11 | 144.7 | 4.45
CCCCCCCC#CCOC(=O)CCSCC(CC(=O)NC1CCN(C)CC1)C(=O)OCC(CCCCCC)CCCCCCCC (stereo not drawn) [VC-LC-0538] | 8.25 | 96.86 | 0.16 | 153.4 | 5.13
CCCCCCCCCCCCCOC(=O)CCSCCC(C(=O)NCCCN1CCOCC1)C(=O)OCC(CCCCCC)CCCCCCCC (stereo not drawn) [VC-LC-0605] | 5.68 | 52.30 | 0.24 | 136.3 | -11.79
CCCCCCCCCCCCCOC(=O)CCSCCC(NC(=O)C(CCCCCC)CCCCCCCC)C(=O)NCCN1CCOCC1 (stereo not drawn) [VC-LC-0392] | 4.72 | 40.58 | 0.19 | 136.1 | -11.14
CCCCCCCCCCCCOC(=O)CCSCCC(C(=O)NCCCn1ccnc1)C(=O)OC(CCCCCCCC)CCCCCCCC (stereo not drawn) [VC-LC-0366] | 6.33 | 89.18 | 0.16 | 122.6 | -13.24
CCCCCCCCCCC(CCCCCCCC)C(=O)NC(CCSCCC(=O)OCCCCCC)C(=O)NC1CCN(C)CC1 (stereo not drawn) [VC-LC-0566] | 6.57 | 55.25 | 0.13 | 149.0 | -3.35
CCCCCCCCCCCCCCOC(=O)CCSCC(CC(=O)NCCCn1ccnc1)C(=O)OC(CCCCCCCC)CCCCCCCC (stereo not drawn) [VC-LC-0299] | 6.09 | 57.64 | 0.15 | 193.3 | -13.45
CCCCCCCCC(CCCCCC)COC(=O)C(CCSCCC(=O)OCCCCCCCC(C)C)C(=O)NCCCN1CCOCC1 (stereo not drawn) [VC-LC-0607] | 5.89 | 49.38 | 0.17 | 148.0 | -11.81
CCCCCCCC#CCOC(=O)CCSCCC(NC(=O)C(CCCCCC)CCCCCCCC)C(=O)NCC1CCN(C)CC1 (stereo not drawn) [VC-LC-0505] | 6.74 | 99.88 |  | 168.6 | -2.94
CCCCCCCC#CCOC(=O)CCSCCC(NC(=O)C(CCCCCC)CCCCCCCC)C(=O)NCCN1CCOCC1 (stereo not drawn) [VC-LC-0408] | 4.83 | 41.23 | 0.25 | 168.1 | -15.07
CCCCCCCCCCCCCCOC(=O)CCSCCC(C(=O)NCCCN1CCOCC1)C(=O)OCC(CCCCCC)CCCCCCCC (stereo not drawn) [VC-LC-0610] | 5.93 | 55.68 | 0.13 | 168.1 | -21.04
CCCCCCCCC(CCCCCC)C(=O)NC(CCSCCC(=O)OCCCCCCC)C(=O)NCCCN(CCO)CCO (stereo not drawn) [VC-LC-0207] | 7.18 | 93.61 | 0.2 | 185.7 | -0.83
CCCCCCCC#CCOC(=O)CCSCCC(NC(=O)CCCCCCCCCCCCCCCCC)C(=O)NCCCN1CCOCC1 (stereo not drawn) [VC-LC-0390] | 6.10 | 83.80 | 0.24 | 192.8 | -1.14
